Source: PubChem BioAssay (NCI)
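Exposure lasted 48 hours, with cells grown in 96-well plates and compounds tested at five concentrations. The concentration for 50% growth inhibition is given as GI50. TGI is the concentration that stops growth completely.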

Experiments:
Test in all cases: NCI anticancer screen, dose series, 48 h
HCT-15 colon = tested on: HCT-15 colon
UO-31 renal = tested on: UO-31 renal
OVCAR-5 ovarian = tested on: OVCAR-5 ovarian
IGROV1 ovarian = tested on: IGROV1 ovarian
SF-268 CNS = tested on: SF-268 CNS
MALME-3M melanoma = tested on: MALME-3M melanoma
ACHN renal = tested on: ACHN renal
SR leukemia = tested on: SR leukemia
M14 melanoma = tested on: M14 melanoma
NCI/ADR-RES ovarian = tested on: NCI/ADR-RES ovarian

SMILES: NC(=O)N/N=C(\C(=O)C(=O)Nc1ccc(Cl)c(C(F)(F)F)c1)c1nc2ccc(C(=O)c3ccccc3)cc2[nH]c1=O
- TGI (HCT-15 colon): > 100 µM
- TGI (UO-31 renal): > 100 µM
- TGI (OVCAR-5 ovarian): > 100 µM
- TGI (IGROV1 ovarian): > 100 µM
- TGI (SF-268 CNS): > 100 µM
- TGI (MALME-3M melanoma): > 100 µM
- TGI (ACHN renal): > 100 µM
- TGI (SR leukemia): > 100 µM
- TGI (M14 melanoma): > 100 µM

SMILES: COc1ccc(C(=O)N2CCc3c([nH]c4ccccc34)C2C(=O)O)o1 (centres undefined)
- TGI (HCT-15 colon): > 10 µM
- TGI (IGROV1 ovarian): > 10 µM
- TGI (SF-268 CNS): > 10 µM
- TGI (MALME-3M melanoma): > 10 µM
- TGI (NCI/ADR-RES ovarian): > 10 µM
- TGI (ACHN renal): > 10 µM
- TGI (SR leukemia): > 10 µM
- TGI (M14 melanoma): > 10 µM

SMILES: N=C1N(c2ccccc2)C(=O)C23CCCC2C13N1CCOCC1 (centres undefined)
- TGI (HCT-15 colon): > 100 µM
- TGI (UO-31 renal): > 100 µM
- TGI (OVCAR-5 ovarian): > 100 µM
- TGI (IGROV1 ovarian): > 100 µM
- TGI (SF-268 CNS): > 100 µM
- TGI (MALME-3M melanoma): > 100 µM
- TGI (ACHN renal): > 100 µM
- TGI (SR leukemia): > 100 µM
- TGI (M14 melanoma): > 100 µM

SMILES: CCC(C)OC(=O)C1C2CCC(O2)C1C(=O)O (centres undefined)
- TGI (HCT-15 colon): > 56 µM
- TGI (UO-31 renal): > 100 µM
- TGI (OVCAR-5 ovarian): > 100 µM
- TGI (IGROV1 ovarian): > 100 µM
- TGI (SF-268 CNS): > 80.8 µM
- TGI (MALME-3M melanoma): > 100 µM
- TGI (ACHN renal): > 100 µM
- TGI (SR leukemia): 40.3 µM
- TGI (M14 melanoma): > 100 µM

SMILES: COC1C=CC(C(=O)[N+]2=Cc3[nH]c4ccccc4c3CC2)O1 (centres undefined)
- TGI (HCT-15 colon): > 100 µM
- TGI (UO-31 renal): > 100 µM
- TGI (OVCAR-5 ovarian): > 100 µM
- TGI (IGROV1 ovarian): > 100 µM
- TGI (SF-268 CNS): > 100 µM
- TGI (MALME-3M melanoma): > 100 µM
- TGI (ACHN renal): > 100 µM
- TGI (SR leukemia): 82.7 µM
- TGI (M14 melanoma): > 100 µM

SMILES: COC(=O)C1(C(=O)OC)CC2c3c(c4ccccc4n3C)CC(C1=O)N2Cc1ccccc1 (centres undefined)
- TGI (HCT-15 colon): > 100 µM
- TGI (UO-31 renal): > 100 µM
- TGI (OVCAR-5 ovarian): > 100 µM
- TGI (IGROV1 ovarian): > 100 µM
- TGI (SF-268 CNS): > 100 µM
- TGI (MALME-3M melanoma): > 100 µM
- TGI (ACHN renal): > 100 µM
- TGI (M14 melanoma): > 100 µM

SMILES: O=C1N=C(c2ccccc2)OC1C(=O)c1ccccc1 (centres undefined)
- TGI (HCT-15 colon): > 100 µM
- TGI (UO-31 renal): > 100 µM
- TGI (OVCAR-5 ovarian): > 100 µM
- TGI (IGROV1 ovarian): > 100 µM
- TGI (SF-268 CNS): > 100 µM
- TGI (NCI/ADR-RES ovarian): > 100 µM
- TGI (ACHN renal): > 100 µM
- TGI (SR leukemia): > 100 µM
- TGI (M14 melanoma): > 100 µM

SMILES: COC(=O)C(=O)C(C(=O)C(=O)Nc1ccc(Cl)cc1C)c1nc2ccc(C(=O)c3ccccc3)cc2[nH]c1=O (centres undefined)
- TGI (HCT-15 colon): > 100 µM
- TGI (UO-31 renal): > 100 µM
- TGI (OVCAR-5 ovarian): > 100 µM
- TGI (IGROV1 ovarian): > 100 µM
- TGI (SF-268 CNS): > 100 µM
- TGI (MALME-3M melanoma): > 100 µM
- TGI (ACHN renal): > 100 µM
- TGI (SR leukemia): > 100 µM
- TGI (M14 melanoma): > 100 µM

SMILES: Cc1ccccc1NC(=O)C(=O)C(c1cnc2ccc([N+](=O)[O-])cc2n1)[N+](=O)[O-] (centres undefined)
- TGI (HCT-15 colon): > 100 µM
- TGI (UO-31 renal): > 100 µM
- TGI (OVCAR-5 ovarian): > 100 µM
- TGI (IGROV1 ovarian): > 100 µM
- TGI (SF-268 CNS): > 100 µM
- TGI (MALME-3M melanoma): > 100 µM
- TGI (ACHN renal): > 100 µM
- TGI (SR leukemia): > 100 µM
- TGI (M14 melanoma): > 100 µM

SMILES: C#CCN=C(N/N=C/c1ccc([N+](=O)[O-])o1)NS(=O)(=O)c1cc(C)c(Cl)cc1SCC(N)=O
- GI50 (HCT-15 colon): 22.1 µM
- TGI (HCT-15 colon): 56.4 µM
- GI50 (UO-31 renal): 17.6 µM
- TGI (UO-31 renal): 31.4 µM
- GI50 (OVCAR-5 ovarian): 19.9 µM
- TGI (OVCAR-5 ovarian): 34.5 µM
- GI50 (IGROV1 ovarian): 13.9 µM
- TGI (IGROV1 ovarian): 27.2 µM
- GI50 (SF-268 CNS): 15 µM
- TGI (SF-268 CNS): 35.8 µM
- GI50 (MALME-3M melanoma): 13.6 µM
- TGI (MALME-3M melanoma): 27.7 µM
- GI50 (NCI/ADR-RES ovarian): 94.3 µM
- TGI (NCI/ADR-RES ovarian): > 100 µM
- GI50 (ACHN renal): 16.7 µM
- TGI (ACHN renal): 36.8 µM
- GI50 (SR leukemia): 17 µM
- TGI (SR leukemia): 50.1 µM

SMILES: COC(=O)/C(C#N)=C1\CCC(O)N1C (centres undefined)
- TGI (UO-31 renal): > 100 µM
- TGI (OVCAR-5 ovarian): > 100 µM
- TGI (IGROV1 ovarian): > 100 µM
- TGI (SF-268 CNS): > 100 µM
- TGI (MALME-3M melanoma): > 100 µM
- TGI (ACHN renal): > 100 µM
- TGI (M14 melanoma): > 100 µM
